Measurements published in ChEMBL document CHEMBL3585250, “New pyrazolo[4,3-e][1,2,4]triazine sulfonamides as carbonic anhydrase inhibitors” (Bioorg Med Chem, 2015).

Legend:
[1] = test system: MDA-MB-231; test: Cytotoxic activity against human MDA-MB-231 cells assessed as reduction in cell viability incubated for 24 hrs by MTT assay; format: functional, cell-based; details: MDA-MB-231, 24 h
[2] = test system: MCF7; test: Inhibition of DNA synthesis in human MCF7 cells assessed as reduction in [3H]-thymidine incorporation incubated for 24 hrs by liquid scintillation counting method; format: functional, cell-based
[3] = test system: MDA-MB-231; test: Inhibition of DNA synthesis in human MDA-MB-231 cells assessed as reduction in [3H]-thymidine incorporation incubated for 24 hrs by liquid scintillation counting method; format: functional, cell-based
[4] = test system: MCF7; test: Cytotoxic activity against human MCF7 cells assessed as reduction in cell viability incubated for 24 hrs by MTT assay; format: functional, cell-based; details: MCF7, 24 h
[5] = target: Carbonic anhydrase 2 (Homo sapiens, UniProt P00918); test: Inhibition of human carbonic anhydrase-2 pre-incubated for 15 mins by stopped-flow CO2 hydration assay based Lineweaver-Burk plot method
[6] = target: Carbonic anhydrase 9 (Homo sapiens, UniProt Q16790); test: Inhibition of human carbonic anhydrase-9 pre-incubated for 15 mins by stopped-flow CO2 hydration assay based Lineweaver-Burk plot method
[7] = target: Carbonic anhydrase 1 (Homo sapiens, UniProt P00915); test: Inhibition of human carbonic anhydrase-1 pre-incubated for 15 mins by stopped-flow CO2 hydration assay based Lineweaver-Burk plot method
[8] = target: Carbonic anhydrase 12 (Homo sapiens, UniProt O43570); test: Inhibition of human carbonic anhydrase-12 pre-incubated for 15 mins by stopped-flow CO2 hydration assay based Lineweaver-Burk plot method
Sequence of Carbonic anhydrase 12 (O43570 whole entry): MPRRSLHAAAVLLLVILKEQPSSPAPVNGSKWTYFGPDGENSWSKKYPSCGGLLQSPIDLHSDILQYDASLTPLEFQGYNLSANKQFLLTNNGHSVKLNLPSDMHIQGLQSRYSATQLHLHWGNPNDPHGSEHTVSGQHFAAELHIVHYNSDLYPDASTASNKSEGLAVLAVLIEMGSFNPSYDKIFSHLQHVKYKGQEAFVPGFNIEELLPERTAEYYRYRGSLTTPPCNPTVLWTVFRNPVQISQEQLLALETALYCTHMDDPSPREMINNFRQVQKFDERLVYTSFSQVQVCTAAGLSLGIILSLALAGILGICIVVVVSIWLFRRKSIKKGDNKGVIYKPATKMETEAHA

Sequence of Carbonic anhydrase 1 (P00915 whole entry): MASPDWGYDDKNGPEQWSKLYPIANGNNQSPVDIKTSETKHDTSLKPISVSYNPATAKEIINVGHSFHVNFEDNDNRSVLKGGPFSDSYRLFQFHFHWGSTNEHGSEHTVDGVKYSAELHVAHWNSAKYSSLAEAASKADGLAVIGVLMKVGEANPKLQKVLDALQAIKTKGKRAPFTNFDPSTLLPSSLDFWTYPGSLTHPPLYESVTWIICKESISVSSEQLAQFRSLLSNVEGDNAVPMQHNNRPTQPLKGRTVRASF

| SMILES | IC50 [2] [nM] | IC50 [3] [nM] | Ki [5] [nM] | Ki [6] [nM] | Ki [7] [nM] | Ki [8] [nM] | IC50 [1] [nM] | IC50 [4] [nM] |
| --- | --- | --- | --- | --- | --- | --- | --- | --- |
| CCOc1ccc(S(=O)(=O)NC[C@@H](C)O)cc1-c1nnc2c(n1)c(C)nn2-c1ccc(C)cc1 | > 200000 | > 200000 | > 50000 | 35.6 | 798 | 77.8 | > 200000 | > 200000 |
| CCOc1ccc(S(=O)(=O)N[C@@H](C)CC)cc1-c1nnc2c(n1)c(C)nn2-c1ccc(C)cc1 | > 200000 | > 200000 | > 50000 | 27.7 | 3440 | 77.6 | > 200000 | > 200000 |
| CCOc1ccc(S(=O)(=O)N[C@H](C)CC)cc1-c1nnc2c(n1)c(C)nn2-c1ccc(C)cc1 | > 200000 | > 200000 | > 50000 | 26.6 | 3720 | 70.3 | > 200000 | > 200000 |
| CCOc1ccc(S(=O)(=O)N2CCN(C)CC2)cc1-c1nnc2c(n1)c(C)nn2-c1ccc(S(=O)(=O)N2CCN(C)CC2)c(Cl)c1 |  |  | > 50000 | 417 | 571 | 79.4 |  |  |
| CCOc1ccc(S(=O)(=O)N2CCN(C)CC2)cc1-c1nnc2c(n1)c(C)nn2-c1ccc(Cl)cc1 | > 200000 | > 200000 | > 50000 | 403 | 854 | 81.5 | > 200000 | > 200000 |
| CCOc1ccc(S(=O)(=O)N2CCNCC2)cc1-c1nnc2c(n1)c(C)nn2-c1ccc(Cl)cc1 |  |  | > 50000 |  | 4220 | 93.1 |  |  |

More lines, main results first:

| IC50 [2] [nM] | IC50 [3] [nM] | Ki [5] [nM] | Ki [6] [nM] | Ki [7] [nM] | Ki [8] [nM] | SMILES | IC50 [1] [nM] | IC50 [4] [nM] |
| --- | --- | --- | --- | --- | --- | --- | --- | --- |
| > 200000 | > 200000 | > 50000 | 29.6 | 467 | 536 | CCOc1ccc(S(=O)(=O)N2CCN(C)CC2)cc1-c1nnc2c(n1)c(C)nn2-c1ccc(S(=O)(=O)N2CCN(C)CC2)cc1 | > 200000 | > 200000 |
|  |  | 7070 |  | 4490 | 77.5 | CCOc1ccc(S(N)(=O)=O)cc1-c1nnc2c(n1)c(C)nn2-c1ccc(C)cc1 |  |  |
|  |  | > 50000 | 25.4 | 330 | 78.1 | CCOc1ccc(S(=O)(=O)N2CCN(C)CC2)cc1-c1nnc2c(n1)c(C)nn2-c1ccc(C)cc1 |  |  |
|  |  | > 50000 | 24.5 | 605 | 91.5 | CCOc1ccc(S(=O)(=O)NCCO)cc1-c1nnc2c(n1)c(C)nn2-c1ccc(C)cc1 |  |  |
| > 200000 | > 200000 | > 50000 | 13.8 | 810 | 82.8 | CCOc1ccc(S(=O)(=O)NC[C@H](C)O)cc1-c1nnc2c(n1)c(C)nn2-c1ccc(C)cc1 | > 200000 | > 200000 |
